Test results: BindingDB's records for doi:10.1016/j.ejmech.2014.11.047 (Dongguk University-Seoul, 2015)

Molecular target: Hypoxia-inducible factor 1-alpha (Homo sapiens, UniProt Q16665)
Test: Inhibition of HIF-1alpha in human Hep3B cells cotransfected with pGL3-HRE-luciferase plasmid after 24 hrs by dual-luciferase reporter assay

Hypoxia-inducible factor 1-alpha, sequence (Q16665 whole entry): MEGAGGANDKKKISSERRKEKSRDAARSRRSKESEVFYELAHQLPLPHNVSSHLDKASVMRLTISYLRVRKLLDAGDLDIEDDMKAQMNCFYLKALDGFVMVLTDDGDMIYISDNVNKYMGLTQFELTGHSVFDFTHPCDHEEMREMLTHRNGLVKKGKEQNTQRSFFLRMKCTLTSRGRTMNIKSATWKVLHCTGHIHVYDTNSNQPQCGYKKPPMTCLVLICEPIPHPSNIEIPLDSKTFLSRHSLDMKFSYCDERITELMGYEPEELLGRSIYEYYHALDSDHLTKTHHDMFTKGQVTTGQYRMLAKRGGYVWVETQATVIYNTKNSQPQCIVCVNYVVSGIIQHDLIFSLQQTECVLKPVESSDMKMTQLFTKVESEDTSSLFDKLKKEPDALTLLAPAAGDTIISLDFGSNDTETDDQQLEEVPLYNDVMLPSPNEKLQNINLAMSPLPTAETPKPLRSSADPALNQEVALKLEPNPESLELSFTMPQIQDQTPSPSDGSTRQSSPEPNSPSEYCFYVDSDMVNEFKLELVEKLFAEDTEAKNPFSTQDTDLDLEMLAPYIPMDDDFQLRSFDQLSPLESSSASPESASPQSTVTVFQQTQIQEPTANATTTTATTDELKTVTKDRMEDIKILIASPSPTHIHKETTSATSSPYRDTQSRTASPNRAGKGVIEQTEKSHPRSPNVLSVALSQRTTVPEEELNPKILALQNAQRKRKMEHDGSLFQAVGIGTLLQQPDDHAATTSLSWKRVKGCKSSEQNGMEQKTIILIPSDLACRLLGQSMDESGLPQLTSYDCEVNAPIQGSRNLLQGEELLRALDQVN

IC50: 0.65 nM
SMILES: CC1(C)Oc2cc3oc(-c4cc(O)cc(O)c4)cc3cc2CC1O (stereo unspecified) [Moracin P]
